{"source": "patent US11813301B2", "about": "“Topical composition with active compounds from Cannabis sativa and Calendula officinalis for reduction of skin lesions” (UAB Satimed, priority 2016, dated 2023)", "origin": "cited, not measured here", "data": [{"tested_on": "keratinocyte proliferation", "settings": "cannabinoid receptor-independent manner", "values": [{"smiles": "CCCCCc1cc(O)c2c(c1)OC(C)(C)[C@@H]1CCC(C)=C[C@@H]21", "note": "[Preparation D9-THC, Δ9-tetrahydrocannabinol]", "inhibition of keratinocyte proliferation": "low micromolar range"}, {"smiles": "C=C(C)[C@@H]1CCC(C)=C[C@H]1c1c(O)cc(CCCCC)cc1O", "note": "[CBD, Cannabidiol]", "inhibition of keratinocyte proliferation": "low micromolar range"}, {"smiles": "CCCCCc1cc(O)c2c(c1)OC(C)(C)c1ccc(C)cc1-2", "note": "[CBN, Cannabinol]", "inhibition of keratinocyte proliferation": "low micromolar range"}]}]}
